Measured values reported in patent US6984643B2, “2,5-substituted pyrimidine derivatives-CCR-3 receptor antagonists” (Roche Palo Alto LLC, priority 2002, dated 2006).

Each compound was assayed against T1, CCR-3 receptor (Homo sapiens, UniProt P51677) (assay: CCR-3 Receptor Binding Assay in vitro (inhibition of 125I eotaxin binding to CCR-3 L1.2 transfectant cells)). Conditions: concentration reducing 125I-eotaxin binding to CCR-3 L1.2 transfected cells by 50%; read-out: CCR-3 IC50.
T1 construct: expressed in transfected cells; host or cells: L1.2 (murine pre-B lymphoma line)
T1 sequence (P51677 1-355): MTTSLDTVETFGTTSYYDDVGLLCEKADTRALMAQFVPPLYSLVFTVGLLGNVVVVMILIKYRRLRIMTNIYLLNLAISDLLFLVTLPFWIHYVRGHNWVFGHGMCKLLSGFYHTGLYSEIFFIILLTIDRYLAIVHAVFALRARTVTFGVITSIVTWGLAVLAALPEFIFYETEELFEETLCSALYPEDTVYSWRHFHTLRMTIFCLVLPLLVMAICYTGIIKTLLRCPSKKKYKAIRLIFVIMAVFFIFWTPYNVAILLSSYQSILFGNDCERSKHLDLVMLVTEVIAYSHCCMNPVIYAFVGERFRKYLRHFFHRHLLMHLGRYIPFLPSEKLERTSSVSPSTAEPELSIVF
Description: The CCR-3 antagonistic activity of the compounds of the invention was determined by their ability to inhibit the binding of ^125I eotaxin to CCR-3 L1.2 transfectant cells (see Ponath, P. D. et al., J. Exp. Med., Vol. 183, 2437-2448, (1996)).
The assay was performed in Costar 96-well polypropylene round bottom plates. Test compounds were dissolved in DMSO and then diluted with binding buffer (50 mM HEPES, 1 mM CaCl2, 5 mM MgCl2, 0.5% bovine serum albumin (BSA), 0.02% sodium azide, pH 7.24) such that the final DMSO concentration was 2%. Each well was filled with 25 μl of the test solution or only buffer with DMSO (control samples) followed by the addition of 25 μl of ^125I-eotaxin (100 pmol) (NEX314, New England Nuclear, Boston, Mass.) and 1.5×10^5 of the CCR-3 L1.2 transfected cells in 25 μl binding buffer. The final reaction volume was 75 μl.
After incubating the reaction mixture for 1 h at room temperature, the reaction was terminated by filtering the reaction mixture through polyethylenimine treated Packard Unifilter GF/C filter plate (Packard, Chicago, Ill.). The filters were washed four times with ice cold wash buffer containing 10 mM HEPES and 0.5M sodium chloride (pH 7.2) and dried at 65° C. for approximately 10 min. 25 μl/well of Microscint-20™ scintillation fluid (Packard) was added and the radioactivity retained on the filters was determined by using the Packard TopCount™.
The IC50 value (concentration of test compound required to reduce ^125I-eotaxin binding to the CCR-3 L 1.2 transfected cells by 50%) for compounds in Table I of the invention was between 0.02 and 200 μM, preferably between 0.02 and 10 μM.

Compound | IC50
COc1ccc(-c2cnc(SCC(=O)NCC3CCCN(Cc4cc(Br)c(Br)s4)C3)nc2)cc1OC (centres unmarked) [Compound 63, N-[1-(4,5-dibromo-thiophen-2-ylmethyl)-piperidin-3-ylmethyl]-2-[5-(3,4-dimethoxy-phenyl)-pyrimidin-2-ylsulfanyl]-acetamide] | 66 nM
COc1ccc(-c2cnc(SCC(=O)NCC3CCCN(Cc4ccc5ccccc5c4)C3)nc2)cc1OC (centres unmarked) [Compound 15, 2-[5-(3,4-dimethoxy-phenyl)-pyrimidin-2-ylsulfanyl]-N-(1-naphthalen-2-yl-methyl-piperidin-3-ylmethyl)-acetamide] | 263 nM
COc1ccc(-c2cnc(SCC(=O)NCC3CCCN(Cc4ccc5c(c4)OCO5)C3)nc2)cc1OC (centres unmarked) [Compound 13, N-(1-benzo[1,3]-dioxol-5-ylmethyl-piperidin-3-ylmethyl]-2-[5-(3,4-dimethoxy-phenyl)-pyrimidin-2-ylsulfanyl]-acetamide] | 205 nM
COc1cc(-c2cnc(CCC(=O)NCC3CCCN(Cc4cccc(Cl)c4Cl)C3)nc2)cc(OC)c1OC (centres unmarked) [Compound 57, N-[1-(2,3-dichloro-benzyl)-piperidin-3-ylmethyl]-3-[5-(3,4,5-trimethoxy-phenyl)-pyrimidin-2-yl]-propionamide] | 12000 nM
COc1ccc(-c2cnc(OCC(=O)NCC3CCCN(Cc4cccc(Cl)c4Cl)C3)nc2)cc1OC (centres unmarked) [Compound 26, N-[1-(2,3-dichloro-benzyl)-piperidin-3-ylmethyl]-2-[5-(3,4-dimethoxy-phenyl)-pyrimidin-2-yloxy]-acetamide] | 507 nM
COc1ccc(-c2cnc(SCC(=O)NCC3CCCN(Cc4ccc(Cl)c(Cl)c4)C3)nc2)cc1OC (centres unmarked) [Compound 2, N-[1-(3,4-dichloro-benzyl)-piperidin-3-ylmethyl]-2-[5-(3,4-dimethoxy-phenyl)-pyrimidin-2-ylsulfanyl]-acetamide] | 29 nM
COc1ccc(-c2cnc(OCC(=O)NCC3CCCN(Cc4ccc5c(c4)OCO5)C3)nc2)cc1OC (centres unmarked) [Compound 51, N-(1-benzo[1,3]-dioxol-5-ylmethyl-piperidin-3-ylmethyl)-2-[5-(3,4-dimethoxy-phenyl)-pyrimidin-2-yloxy]-acetamide] | 4640 nM
COc1ccc(-c2cnc(SCC(=O)NCC3CCCN(Cc4ccc5c(c4)CCC5)C3)nc2)cc1 (centres unmarked) [Compound 40] | 1390 nM
COc1ccc(-c2cnc(SCC(=O)NCC3CCCN(Cc4ccc5cc[nH]c5c4)C3)nc2)cc1 (centres unmarked) [Compound 30] | 731 nM
COc1ccc(-c2cnc(CCC(=O)NCC3CCCN(Cc4ccc5c(c4)OCO5)C3)nc2)cc1 (centres unmarked) [Compound 44, N-(1-benzo[1,3]-dioxol-5-ylmethyl-piperidin-3-ylmethyl)-3-[5-(4-methoxy-phenyl)-pyrimidin-2-yl]-propionamide] | 2080 nM
COc1ccc(-c2cnc(SCC(=O)NCC3CCCN(Cc4ccccc4)C3)nc2)cc1OC (centres unmarked) [Compound 36, N-(1-benzyl-piperidin-3-ylmethyl)-2-[5-(3,4-dimethoxy-phenyl)-pyrimidin-2-ylsulfanyl]-acetamide] | 1060 nM
COc1cc(-c2cnc(OCC(=O)NCC3CCCN(Cc4ccc(Cl)c(Cl)c4)C3)nc2)cc(OC)c1OC (centres unmarked) [Compound 58, N-[1-(3,4-dichloro-benzyl)-piperidin-3-ylmethyl]-2-[5-(3,4,5-trimethoxy-phenyl)-pyrimidin-2-yloxy]-acetamide] | 21000 nM
COc1cccc(-c2cnc(OCC(=O)NCC3CCCN(Cc4ccc5c(c4)OCO5)C3)nc2)c1 (centres unmarked) [Compound 62, N-(1-benzo[1,3]-dioxol-5-ylmethyl-piperidin-3-ylmethyl)-2-[5-(3-methoxy-phenyl)-pyrimidin-2-yloxy]-acetamide] | 128000 nM
O=C(CSc1ncc(-c2ccccc2)cn1)NCC1CCCN(Cc2ccc(F)c(F)c2)C1 (centres unmarked) [Compound 49, N-[1-(3,4-difluoro-benzyl)-piperidin-3-ylmethyl]-2-(5-phenyl-pyrimidin-2-ylsulfanyl)-acetamide] | 2810 nM
COc1cccc(-c2cnc(OCC(=O)NCC3CCCN(Cc4cccc(Cl)c4Cl)C3)nc2)c1 (centres unmarked) [Compound 52, N-[1-(2,3-dichloro-benzyl)-piperidin-3-ylmethyl]-2-[5-(3-methoxy-phenyl)-pyrimidin-2-yloxy]-acetamide] | 5740 nM
COc1ccc(-c2cnc(SCC(=O)NCC3CCCN(Cc4cc(Cl)c(Cl)s4)C3)nc2)cc1OC (centres unmarked) [Compound 64, N-[1-(4,5-dichloro-thiophen-2-ylmethyl)-piperidin-3-ylmethyl]-2-[5-(3,4-dimethoxy-phenyl)-pyrimidin-2-ylsulfanyl]-acetamide] | 81 nM
COc1ccc(-c2cnc(OCC(=O)NCC3CCCN(Cc4cccc(Cl)c4Cl)C3)nc2)cc1 (centres unmarked) [Compound 46, N-[1-(2,3-dichloro-benzyl)-piperidin-3-ylmethyl]-2-[5-(4-methoxy-phenyl)-pyrimidin-2-yloxy]-acetamide] | 2110 nM
O=C(CSc1ncc(-c2ccccc2)cn1)NCC1CCCN(Cc2ccc3c(c2)OCO3)C1 (centres unmarked) [Compound 41, N-(1-benzo[1,3]-dioxol-5-ylmethyl-piperidin-3-ylmethyl)-2-(5-phenyl-pyrimidin-2-ylsulfanyl)-acetamide] | 1560 nM
COc1ccc(-c2cnc(SCC(=O)NCC3CCCN(Cc4ccc(F)c(F)c4)C3)nc2)cc1 (centres unmarked) [Compound 39, N-[1-(3,4-difluoro-benzyl)-piperidin-3-ylmethyl]-2-[5-(4-methoxy-phenyl)-pyrimidin-2-ylsulfanyl]-acetamide] | 1370 nM
O=C(CSc1ncc(-c2ccccc2)cn1)NCC1CCCN(Cc2ccc(O)c(O)c2)C1 (centres unmarked) [Compound 38, N-[1-(3,4-dihydroxy-benzyl)-piperidin-3-ylmethyl]-2-(5-phenyl-pyrimidin-2-ylsulfanyl)-acetamide] | 1350 nM
COc1ccc(-c2cnc(CCC(=O)NCC3CCCN(Cc4ccc(Br)c(Br)c4)C3)nc2)cc1OC (centres unmarked) [Compound 8, N-[1-(3,4-dibromo-benzyl)-piperidin-3-ylmethyl]-3-[5-(3,4-dimethoxy-phenyl)-pyrimidin-2-yl]-propionamide] | 107 nM
COc1ccc(-c2cnc(SCC(=O)NCC3CCCN(Cc4ccc5cc[nH]c5c4)C3)nc2)cc1OC (centres unmarked) [Compound 1] | 25 nM
COc1ccc(-c2cnc(CCC(=O)NCC3CCCN(Cc4ccc(Cl)c(Cl)c4)C3)nc2)cc1OC (centres unmarked) [Compound 10, N-[1-(3,4-dichloro-benzyl)-piperidin-3-ylmethyl]-3-[5-(3,4-dimethoxy-phenyl)-pyrimidin-2-yl]-propionamide] | 164 nM
O=C(CSc1ncc(-c2ccccc2)cn1)NCC1CCCN(Cc2ccc(Cl)c(Cl)c2)C1 (centres unmarked) [Compound 42, N-[1-(3,4-dichloro-benzyl)-piperidin-3-ylmethyl]-2-(5-phenyl-pyrimidin-2-ylsulfanyl)-acetamide] | 1560 nM
COc1ccc(-c2cnc(CCC(=O)NCC3CCCN(Cc4ccc(Cl)c(Cl)c4)C3)nc2)cc1OC (centres unmarked) [Compound 9, N-[1-(3,4-dichloro-benzyl)-piperidin-3-ylmethyl]-3-[5-(3,4-dimethoxy-phenyl)-pyrimidin-2-yl]-propionamide] | 152 nM
COc1ccc(-c2cnc(CCC(=O)NCC3CCCN(Cc4ccc5c(c4)CCC5)C3)nc2)cc1OC (centres unmarked) [Compound 34, 3-[5-(3,4-dimethoxy-phenyl)-pyrimidin-2-yl]-N-(1-indan-5-yl-methyl-piperidin-3-ylmethyl)-propion-amide] | 994 nM
COc1ccc(-c2cnc(SCC(=O)NCC3CCCN(Cc4ccc(Cl)c(F)c4)C3)nc2)cc1OC (centres unmarked) [Compound 33, N-[1-(4-chloro-3-fluoro-benzyl)-piperidin-3-ylmethyl]-2-[5-(3,4-dimethoxy-phenyl)-pyrimidin-2-ylsulfanyl]-acetamide] | 973 nM
COc1ccc(-c2cnc(SCC(=O)NCC3CCCN(Cc4ccc5c(c4)CCC5)C3)nc2)cc1OC (centres unmarked) [Compound 16, 2-[5-(3,4-dimethoxy-phenyl)-pyrimidin-2-ylsulfanyl]-N-(1-indan-5-ylmethyl-piperidin-3-ylmethyl)-acetamide] | 276 nM

Same assay, conditions: stated in text for the compound where Z is —C(═O)—; assay not given; read-out: IC50

Compound | IC50
COc1ccc(-c2cnc(SCC(=O)NCC3CCCN(C(=O)CCc4ccc(Cl)cc4)C3)nc2)cc1OC (racemic) [Compound 70, (±)-N-{1-[3-(4-Chlorophenyl)-propionyl]-piperidin-3-ylmethyl}-2-[5-(3,4-dimethoxy-phenyl)-pyrimidin-2-ylsulfanyl]-acetamide] | 1920 nM
